Usually Ki stands for a dissociation constant, usually derived from enzyme kinetics or from competition with a known ligand.

Molecules are shown by their SMILES.

These results are taken from patent US20110082130A1 (LIGAND PHARMACEUTICALS, INC., priority 2006, published 2011).

In one assay the target is T1, chimeric human H3 receptor (Homo sapiens, UniProt Q9Y5N1).
T1 construct: made in house; host or cells: Sf9 insect cells (baculovirus); P2 membrane preparation
T1 sequence (Q9Y5N1 with tags, fused parts or gaps): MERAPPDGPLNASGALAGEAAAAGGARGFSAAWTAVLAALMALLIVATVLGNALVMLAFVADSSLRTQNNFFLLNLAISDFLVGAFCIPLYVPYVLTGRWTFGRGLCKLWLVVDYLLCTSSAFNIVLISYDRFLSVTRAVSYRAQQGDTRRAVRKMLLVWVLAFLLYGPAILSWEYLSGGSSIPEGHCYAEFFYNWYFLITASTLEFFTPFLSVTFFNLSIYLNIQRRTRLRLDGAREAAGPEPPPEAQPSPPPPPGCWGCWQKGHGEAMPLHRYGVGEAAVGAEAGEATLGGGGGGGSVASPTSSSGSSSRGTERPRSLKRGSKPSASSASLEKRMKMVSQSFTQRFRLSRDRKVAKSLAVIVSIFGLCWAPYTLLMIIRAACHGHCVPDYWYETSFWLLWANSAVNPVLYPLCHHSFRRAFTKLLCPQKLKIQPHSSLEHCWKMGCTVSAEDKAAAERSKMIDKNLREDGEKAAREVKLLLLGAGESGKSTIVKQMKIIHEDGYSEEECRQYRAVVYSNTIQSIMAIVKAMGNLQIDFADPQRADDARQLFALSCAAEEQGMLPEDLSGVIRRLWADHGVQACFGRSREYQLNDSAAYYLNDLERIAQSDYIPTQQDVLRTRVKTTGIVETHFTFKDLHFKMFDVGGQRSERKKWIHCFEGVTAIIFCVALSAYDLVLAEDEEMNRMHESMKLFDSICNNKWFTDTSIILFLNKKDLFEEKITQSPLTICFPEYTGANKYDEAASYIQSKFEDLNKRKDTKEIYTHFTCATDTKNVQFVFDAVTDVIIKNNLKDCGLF
Kind of assay: Chimeric human H3 receptor GTP binding assay (agonist-stimulated GTP-gamma35S binding, Example 7). In kind it is biochemical. The note with it: Table I; P2 membranes of Sf9 cells, 1 μM histamine as agonist, Ki from IC50 by Cheng-Prusoff. In a few lines:
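Sf9 membranes co-expressing chimeric human H3 receptor and heterotrimeric G-protein, 35 μg/tube, in pH 7.4 Tris buffer with 10 μM GDP. Test compounds (10^−10–10^−6 M) competed against 1 μM histamine, […] GTP-gamma35S, 60 min at room temperature. Filter-bound radioactivity counted; IC50 converted to Ki by Cheng-Prusoff. Agonism/inverse agonism tested without histamine (EC50).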
Background: GTPγS resists hydrolysis and so accumulates on activated G proteins.
For `CC(=O)c1ccc(-c2ncnc3c2CCN(CC(=O)N2CCN(C4CCC4)CC2)CC3)cc1` [Compound 79, 1-(4-{7-[2-(4-cyclobutylpiperazin-1-yl)-2-oxoethyl]-6,7,8,9-tetrahydro-5H-pyrimido[4,5-d]azepin-4-yl}phenyl)ethanone], the Ki is < 1 µM. For `CC(C)CC1c2ccccc2CCN1CC(=O)N1CCN(C(C)C)CC1` (centres unmarked) [Compound 57, 1-isobutyl-2-[2-(4-isopropylpiperazin-1-yl)-2-oxoethyl]-1,2,3,4-tetrahydroisoquinoline], the inhibition constant Ki was < 1 µM.

The assay is the same for the next values; noted with them: Table II "Ki", symbol *; assay of Example 7.
Turning to `COC[C@H]1CCCN1c1ccc2c(n1)CCN(CC(=O)N1CCN(C3CCC3)CC1)C2` [Compound 679, 6-[2-(4-cyclobutylpiperazin-1-yl)-2-oxoethyl]-2-[(2R)-2-(methoxymethyl)pyrrolidin-1-yl]-5,6,7,8-tetrahydro-1,6-naphthyridine], the Ki is < 1 µM. Same read-out and setting: the figure for `COCc1ccc(-c2ccc3c(c2)CCN(CC(=O)N2CCN(C4CCC4)CC2)C3)nc1` [Compound 646, 2-[2-(4-cyclobutylpiperazin-1-yl)-2-oxoethyl]-6-[5-(methoxymethyl)pyridin-2-yl]-1,2,3,4-tetrahydroisoquinoline] is < 1 µM; for `COCC1CCN(c2ccc3c(n2)CCN(CC(=O)N2CCN(C4CCC4)CC2)C3)CC1` [Compound 673, 6-[2-(4-cyclobutylpiperazin-1-yl)-2-oxoethyl]-2-[4-(methoxymethyl)piperidin-1-yl]-5,6,7,8-tetrahydro-1,6-naphthyridine] it is < 1 µM. Still for that read-out and setting: as for `CC(C)CCNc1ccc2c(n1)CCN(CC(=O)N1CCN(C3CCC3)CC1)C2` [Compound 652, 6-[2-(4-cyclobutylpiperazin-1-yl)-2-oxoethyl]-N-(3-methylbutyl)-5,6,7,8-tetrahydro-1,6-naphthyridin-2-amine], the figure is < 1 µM.

Staying with this assay, now noted: Table II; "*" = Ki in assay of Example 7 less than 1 micromolar.
As for `O=C(CN1CCc2c(cnn2-c2ccc(F)cc2)C1)N1CCN(C2CCC2)CC1` [Compound 234, 5-[2-(4-cyclobutylpiperazin-1-yl)-2-oxoethyl]-1-(4-fluorophenyl)-4,5,6,7-tetrahydro-1H-pyrazolo[4,3-c]pyridine], the Ki is < 1 µM. With `O=C(CN1CCc2nn(-c3ccc(C(F)(F)F)cc3)cc2C1)N1CCN(C2CCC2)CC1` [Compound 237, 5-[2-(4-cyclobutylpiperazin-1-yl)-2-oxoethyl]-2-[4-(trifluoromethyl)phenyl]-4,5,6,7-tetrahydro-2H-pyrazolo[4,3-c]pyridine], the Ki is < 1 µM. On the same count and under the same terms, as for `O=C(CN1CCc2[nH]c(=O)ccc2C1)N1CCN(C2CCCCC2)CC1` [Compound 136, 6-[2-(4-cyclohexylpiperazin-1-yl)-2-oxoethyl]-5,6,7,8-tetrahydro-1,6-naphthyridin-2(1H)-one], the figure is < 1 µM; as for `O=C(CN1CCc2cc(Br)ccc2C1)N1CCN(C2CCC2)CC1` [Compound 118, 6-bromo-2-[2-(4-cyclobutylpiperazin-1-yl)-2-oxoethyl]-1,2,3,4-tetrahydroisoquinoline], < 1 µM; as for `CC1CCCC1N1CCN(C(=O)CN2CCc3nc(N4CCCC4)ncc3C2)CC1` (centres unmarked) [Compound 218, 6-{2-[4-(2-methylcyclopentyl)piperazin-1-yl]-2-oxoethyl}-2-pyrrolidin-1-yl-5,6,7,8-tetrahydropyrido[4,3-d]pyrimidine], < 1 µM. The same measure, in the same setting: the figure for `CC(=O)c1ccc2c(c1)CCN(CC(=O)N1CCN(C3CCCC3C)CC1)C2` (centres unmarked) [Compound 206, 1-(2-{2-[4-(2-methylcyclopentyl)piperazin-1-yl]-2-oxoethyl}-1,2.3,4-tetrahydroisoquinolin-6-yl)ethanone] is < 1 µM.

As to `CC1CN(c2ncc3c(n2)CCN(CC(=O)N2CCN(C4CCC4)CC2)C3)CC(C)O1` (centres unmarked) [Compound 187, 6-[2-(4-cyclobutylpiperazin-1-yl)-2-oxoethyl]-2-(2,6-dimethylmorpholin-4-yl)-5,6,7,8-tetrahydropyrido[4,3-d]pyrimidine], the Ki is < 1 µM.

As to `CC(=O)c1ccc(-n2ncc3c2CCN(CC(=O)N2CCN(C4CCC4)CC2)C3)nn1` [Compound 216, 1-(6-{5-[2-(4-cyclobutylpiperazin-1-yl)-2-oxoethyl]-4,5,6,7-tetrahydro-1H-pyrazolo[4,3-c]pyridin-1-yl}pyridazin-3-yl)ethanone], the Ki was < 1 µM. Consider `C[C@@H](O)c1ccc2c(c1)CCN(CC(=O)N1CCN(C3CCC3)CC1)C2` (stereo in doubt) [Compound 253, 1-{2-[2-(4-cyclobutylpiperazin-1-yl)-2-oxoethyl]-1,2,3,4-tetrahydroisoquinolin-6-yl}ethanol], for which the Ki is < 1 µM. Still for that read-out and setting: as for `O=C(CN1CCc2nc(N3CCOCC3)ccc2C1)N1CCN(C2CCC2)CC1` [Compound 175, 6-[2-(4-cyclobutylpiperazin-1-yl)-2-oxoethyl]-2-morpholin-4-yl-5,6,7,8-tetrahydro-1,6-naphthyridine], the figure is < 1 µM; as for `O=C(CN1CCc2cc(Br)ccc2C1)N1CCN2CCCCC2C1` (centres unmarked) [Compound 148, 2-[(6-bromo-3,4-dihydroisoquinolin-2(1H)-yl)acetyl]octahydro-2H-pyrido[1,2-a]pyrazine], < 1 µM. The same measure, in the same setting: as for `CC(=O)c1ccc(-c2nc3c(s2)CN(CC(=O)N2CCN(C4CCC4)CC2)CC3)cc1` [Compound 98, 1-(4-{5-[2-(4-cyclobutylpiperazin-1-yl)-2-oxoethyl]-4,5,6,7-tetrahydro[1,3]thiazolo [5,4-c]pyridin-2-yl}phenyl)ethanone], the figure is < 1 µM; as for `CC(=O)c1ccc(-n2cc3c(n2)CCN(CC(=O)N2CCN(C4CCC4)CC2)C3)cc1` [Compound 94, 1-(4-{5-[2-(4-cyclobutylpiperazin-1-yl)-2-oxoethyl]-4,5,6,7-tetrahydro-2H-pyrazolo[4,3-c]pyridin-2-yl}phenyl)ethanone], < 1 µM; as for `O=C(CN1CCc2cc(-n3cccn3)ccc2C1)N1CCN2CCCCC2C1` (centres unmarked) [Compound 153, 2-{[6-(1H-pyrazol-1-yl)-3,4-dihydroisoquinolin-2(1H)-yl]acetyl}octahydro-2H-pyrido[1,2-a]pyrazine], < 1 µM. As to `CNC(=O)c1ccc2c(c1)CCN(CC(=O)N1CCN(C3CCC3)CC1)C2` [Compound 85, 2-[2-(4-cyclobutylpiperazin-1-yl)-2-oxoethyl]-N-methyl-1,2,3,4-tetrahydroisoquinoline-6-carboxamide], the inhibitory constant (Ki) was < 1 µM.

With `CC(C)(C)c1ncc2c(n1)CCN(CC(=O)N1CCN(C3CCC3)CC1)C2` [Compound 277, 2-tert-butyl-6-[2-(4-cyclobutylpiperazin-1-yl)-2-oxoethyl]-5,6,7,8-tetrahydropyrido[4,3-d]pyrimidine], the Ki is < 1 µM. Turning to `CC1CN(C(=O)CN2CCc3nc(Cl)sc3C2)CCN1C1CCC1` (centres unmarked) [Compound 109, 2-chloro-5-[2-(4-cyclobutyl-3-methylpiperazin-1-yl)-2-oxoethyl]-4,5,6,7-tetrahydro[1,3] thiazolo [5,4-c]pyridine], the inhibitory constant (Ki) is < 1 µM.

Still in this assay, the particulars now being: Table II; assay of Example 7.
Take `O=C(CN1CCc2nc(N3CCCC(C(F)(F)F)C3)ccc2C1)N1CCN(C2CCC2)CC1` (centres unmarked) [Compound 682, 6-[2-(4-cyclobutylpiperazin-1-yl)-2-oxoethyl]-2-[3-(trifluoromethyl)piperidin-1-yl]-5,6,7,8-tetrahydro-1,6-naphthyridine]: the inhibition constant Ki was < 1 µM.

The same assay, now with this note: assay of Example 7; "*" in Ki of Table II.
In the case of `O=C(CN1CCc2nc(-c3ccc(Cl)c(F)c3)sc2C1)N1CCN(C2CCC2)CC1` [Compound 352, 2-(4-chloro-3-fluorophenyl)-5-[2-(4-cyclobutylpiperazin-1-yl)-2-oxoethyl]-4,5,6,7-tetrahydro[1,3]thiazolo [5,4-c]pyridine], the inhibition constant (Ki) was < 1 µM. On the same count and under the same terms, the figure for `O=C(CN1CCc2cc(-c3ccc4c(c3)OCCO4)ccc2C1)N1CCN(C2CCC2)CC1` [Compound 380, 2-[2-(4-cyclobutylpiperazin-1-yl)-2-oxoethyl]-6-(2,3-dihydro-1,4-benzodioxin-6-yl)-1,2,3,4-tetrahydroisoquinoline] is < 1 µM; for `COc1ccc(-c2nc3c(s2)CN(CC(=O)N2CCN(C4CCC4)CC2)CC3)c(C)c1` [Compound 335, 5-[2-(4-cyclobutylpiperazin-1-yl)-2-oxoethyl]-2-(4-methoxy-2-methylphenyl)-4,5,6,7-tetrahydro[1,3]thiazolo [5,4-c]pyridine] it is < 1 µM. Same read-out and setting: as for `Cc1ccc(-c2nc3c(s2)CN(CC(=O)N2CCN(C4CCC4)CC2)CC3)cc1C` [Compound 308, 5-[2-(4-cyclobutylpiperazin-1-yl)-2-oxoethyl]-2-(3,4-dimethylphenyl)-4,5,6,7-tetrahydro[1,3]thiazolo [5,4-c]pyridine], the figure is < 1 µM; as for `O=C(CN1CCc2nc(-c3cc(F)ccc3F)sc2C1)N1CCN(C2CCC2)CC1` [Compound 347, 5-[2-(4-cyclobutylpiperazin-1-yl)-2-oxoethyl]-2-(2,5-difluorophenyl)-4,5,6,7-tetrahydro[1,3]thiazolo [5,4-c]pyridine], < 1 µM; as for `COc1ccccc1-c1nc2c(s1)CN(CC(=O)N1CCN(C3CCC3)CC1)CC2` [Compound 336, 5-[2-(4-cyclobutylpiperazin-1-yl)-2-oxoethyl]-2-(2-methoxyphenyl)-4,5,6,7-tetrahydro[1,3]thiazolo [5,4-c]pyridine], < 1 µM. As for `O=C(CN1CCc2nc(-c3cc(C(F)(F)F)cc(C(F)(F)F)c3)sc2C1)N1CCN(C2CCC2)CC1` [Compound 371, 2-[3,5-bis(trifluoromethyl)phenyl]-5-[2-(4-cyclobutylpiperazin-1-yl)-2-oxoethyl]-4,5,6,7-tetrahydro[1,3]thiazolo [5,4-c]pyridine], the Ki was < 1 µM. Turning to `O=C(CN1CCc2c(cnn2-c2ccc(O)nn2)C1)N1CCN(C2CCC2)CC1` [Compound 291, 6-{5-[2-(4-cyclobutylpiperazin-1-yl)-2-oxoethyl]-4,5,6,7-tetrahydro-1H-pyrazolo[4,3-c]pyridin-1-yl}pyridazin-3-ol], the inhibition constant Ki was < 1 µM.
